In ChEMBL document CHEMBL1201862, “PubChem BioAssay data set” (2004):
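A five-concentration, 48-hour dose response in 96-well plates underlies each endpoint, interpolated linearly between surrounding concentrations. Abbreviation: GI50, concentration required for 50% inhibition of growth.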 Calls of active or inactive are those of the source. No stated cut-off is given here; in the data, active = GI50 up to about 1.1 µM and inactive = higher.

What was measured:
Experiment in all cases: inhibition of tumour cell growth, NCI panel, 48 h
SK-MEL-2 = system: SK-MEL-2
SNB-75 = system: SNB-75
OVCAR-5 = system: OVCAR-5
EKVX = system: EKVX
SF-268 = system: SF-268
Hs-578T = system: Hs-578T
T47D = system: T47D
UACC-62 = system: UACC-62
SK-MEL-5 = system: SK-MEL-5
SK-OV-3 = system: SK-OV-3
NCI-H460 = system: NCI-H460
DU-145 = system: DU-145
IGROV-1 = system: IGROV-1
SF-295 = system: SF-295
UACC-257 = system: UACC-257
HCC 2998 = system: HCC 2998
CAKI-1 = system: CAKI-1
COLO 205 = system: COLO 205
K562 = system: K562
LOX IMVI = system: LOX IMVI
SR = system: SR
HOP-62 = system: HOP-62
SW-620 = system: SW-620
A498 = system: A498
U-251 = system: U-251
MOLT-4 = system: MOLT-4
HOP-92 = system: HOP-92
TK-10 = system: TK-10
A549 = system: A549
MCF7 = system: MCF7
KM12 = system: KM12
ACHN = system: ACHN
CCRF-CEM = system: CCRF-CEM
MDA-N = system: MDA-N
RXF 393 = system: RXF 393
HT-29 = system: HT-29
PC-3 = system: PC-3
NCI-H23 = system: NCI-H23
UO-31 = system: UO-31
M14 = system: M14
SK-MEL-28 = system: SK-MEL-28
SF-539 = system: SF-539
MDA-MB-435 = system: MDA-MB-435
OVCAR-8 = system: OVCAR-8
OVCAR-3 = system: OVCAR-3
HCT-15 = system: HCT-15
OVCAR-4 = system: OVCAR-4
MDA-MB-231 = system: MDA-MB-231
RPMI-8226 = system: RPMI-8226
NCI-H226 = system: NCI-H226
SNB-19 = system: SNB-19
HL-60 = system: HL-60
NCI/ADR-RES = system: NCI/ADR-RES
HCT-116 = system: HCT-116
SN12C = system: SN12C
Malme-3M = system: Malme-3M
NCI-H522 = system: NCI-H522
786-0 = system: 786-0

Measured: GI50

Cc1ccc(/N=N/C(=N\NC(=O)c2ccc(C)cc2)c2ccc(N(CCC#N)CCC#N)cc2C)cc1
inactive: SK-MEL-2 20.5 µM | SNB-75 35.5 µM | OVCAR-5 50.5 µM | EKVX 43 µM | SF-268 22.5 µM | Hs-578T 16.4 µM | T47D 49.7 µM | UACC-62 22.4 µM | SK-MEL-5 4.69 µM | SK-OV-3 65.6 µM | NCI-H460 23.8 µM | DU-145 57.8 µM | IGROV-1 13.4 µM | SF-295 38.4 µM | UACC-257 27.9 µM | HCC 2998 50.2 µM | CAKI-1 67 µM | COLO 205 48.2 µM | K562 35.9 µM | LOX IMVI 35.7 µM | SR 18.7 µM | HOP-62 34.4 µM | SW-620 39 µM | A498 > 100 µM | U-251 14.8 µM | MOLT-4 39.4 µM | HOP-92 51.3 µM | TK-10 45.5 µM | A549 34.5 µM | MCF7 31 µM | KM12 12.2 µM | ACHN 46.7 µM | CCRF-CEM 49.4 µM | MDA-N 29.7 µM | RXF 393 44.8 µM | HT-29 19.4 µM | PC-3 24 µM | NCI-H23 35.3 µM | UO-31 > 100 µM | M14 30 µM | SK-MEL-28 10.3 µM | SF-539 13.7 µM | MDA-MB-435 21 µM | OVCAR-8 17.7 µM | OVCAR-3 26.2 µM | OVCAR-4 47.1 µM | MDA-MB-231 57.9 µM | RPMI-8226 13 µM | NCI-H226 20.7 µM | SNB-19 > 100 µM | HL-60 17.4 µM | NCI/ADR-RES 38.9 µM
33.5 µM: HCT-15

CCCCCOP(=O)(OCCCCC)C(NC(C)=O)(C(=O)OCC)C(F)(F)F (stereo not given)
> 100 µM: HCT-15
inactive: SNB-75 > 100 µM | EKVX > 100 µM | SF-268 > 100 µM | T47D > 100 µM | UACC-62 > 100 µM | SK-OV-3 > 100 µM | DU-145 > 100 µM | HCT-116 > 100 µM | HCC 2998 > 100 µM | K562 > 100 µM | SR > 100 µM | HOP-62 > 100 µM | SN12C > 100 µM | A498 > 100 µM | U-251 > 100 µM | Malme-3M > 100 µM | MOLT-4 > 100 µM | NCI-H522 > 100 µM | MCF7 > 100 µM | ACHN > 100 µM | CCRF-CEM > 100 µM | MDA-N > 100 µM | HT-29 > 100 µM | UO-31 > 100 µM | M14 > 100 µM | SK-MEL-28 > 100 µM | SF-539 > 100 µM | MDA-MB-435 > 100 µM | MDA-MB-231 > 100 µM | RPMI-8226 > 100 µM | HL-60 > 100 µM

COc1ccc(C(=CCC(C)C2CCC3[C@@H]4C(OC(C)=O)CC5CC(OC(C)=O)CC[C@]5(C)C4CC(OC(C)=O)[C@]23C)c2ccc(OC)cc2)cc1 (stereo not given in full)
inactive: SNB-75 34.8 µM | OVCAR-5 72.8 µM | EKVX > 100 µM | SF-268 > 100 µM | Hs-578T > 100 µM | T47D 41 µM | SK-MEL-5 > 100 µM | SK-OV-3 > 100 µM | NCI-H460 55.2 µM | IGROV-1 > 100 µM | HCT-116 66.1 µM | SF-295 > 100 µM | UACC-257 99.5 µM | HCC 2998 > 100 µM | COLO 205 > 100 µM | K562 67.8 µM | SR 19.5 µM | HOP-62 > 100 µM | SW-620 91.4 µM | SN12C > 100 µM | U-251 > 100 µM | MOLT-4 17.1 µM | 786-0 > 100 µM | TK-10 > 100 µM | NCI-H522 23.8 µM | A549 > 100 µM | MCF7 20.3 µM | KM12 76.6 µM | ACHN 37.3 µM | CCRF-CEM 27.1 µM | HT-29 > 100 µM | PC-3 19.5 µM | UO-31 47.4 µM | M14 19.1 µM | SK-MEL-28 83.8 µM | SF-539 97.7 µM | MDA-MB-435 77.1 µM | OVCAR-8 > 100 µM | OVCAR-4 19.1 µM | MDA-MB-231 > 100 µM | RPMI-8226 29.2 µM | SNB-19 > 100 µM | HL-60 8.02 µM | NCI/ADR-RES 80.7 µM
86.5 µM: HCT-15
